The target of one data set is CYP2E1 (Homo sapiens, UniProt P05181). In words: Inhibition of CYP2E1 in human liver microsomes at 20 uM using chlorzoxazone as substrate incubated for 60 mins by HPLC analysis relative to control. It counts as ADME. As to conditions: probe chlorzoxazone; call rule not given here.
The target of data set [1] is T1, Prostaglandin E2 receptor EP4 subtype (Homo sapiens, UniProt P35408). Description: Inhibition of human EP4 transfected in human HEK293 cells assessed as reduction in PGE2-induced cAMP level incubated for 15 mins followed by PGE2 stimulation and measured every 2 mins for 30 mins by GloSensor cAMP Assay.
T1 sequence (P35408 whole entry): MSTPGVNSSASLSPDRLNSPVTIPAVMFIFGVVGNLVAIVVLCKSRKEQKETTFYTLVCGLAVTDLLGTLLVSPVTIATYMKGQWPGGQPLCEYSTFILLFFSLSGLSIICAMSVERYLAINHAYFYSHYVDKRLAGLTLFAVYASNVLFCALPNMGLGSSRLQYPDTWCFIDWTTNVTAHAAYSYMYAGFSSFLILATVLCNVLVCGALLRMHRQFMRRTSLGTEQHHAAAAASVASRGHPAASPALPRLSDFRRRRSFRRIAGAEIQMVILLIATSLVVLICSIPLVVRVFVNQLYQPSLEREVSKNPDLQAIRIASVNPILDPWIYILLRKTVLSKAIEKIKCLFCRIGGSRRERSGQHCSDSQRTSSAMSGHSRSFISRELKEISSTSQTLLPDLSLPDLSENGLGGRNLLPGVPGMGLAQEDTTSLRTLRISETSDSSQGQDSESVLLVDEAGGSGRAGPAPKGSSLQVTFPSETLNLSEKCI
In another data set the target is Cytochrome P450 3A4 (Homo sapiens, UniProt P08684). Description: Inhibition of CYP3A4 in human liver microsomes at 20 uM using testosterone as substrate incubated for 60 mins by HPLC analysis. As to conditions: 1 h. It counts as ADME.
Chain of Cytochrome P450 3A4 (P08684 whole entry): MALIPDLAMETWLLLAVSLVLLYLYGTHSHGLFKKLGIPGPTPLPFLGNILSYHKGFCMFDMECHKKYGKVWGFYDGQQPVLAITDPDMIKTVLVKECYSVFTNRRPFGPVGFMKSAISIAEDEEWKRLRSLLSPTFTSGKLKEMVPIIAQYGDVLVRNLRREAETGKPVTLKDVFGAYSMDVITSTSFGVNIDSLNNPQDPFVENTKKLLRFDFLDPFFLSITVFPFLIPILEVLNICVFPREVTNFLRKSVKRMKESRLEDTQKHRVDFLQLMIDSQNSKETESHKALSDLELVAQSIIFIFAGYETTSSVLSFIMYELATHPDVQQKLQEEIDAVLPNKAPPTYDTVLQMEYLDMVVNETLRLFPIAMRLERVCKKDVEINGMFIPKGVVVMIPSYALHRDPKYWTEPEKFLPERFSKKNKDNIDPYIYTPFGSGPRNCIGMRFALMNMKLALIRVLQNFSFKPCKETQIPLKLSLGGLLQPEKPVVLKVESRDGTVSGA
A further data set addresses CYP2D6 (Homo sapiens, UniProt P10635). In words: Inhibition of CYP2D6 in human liver microsomes at 20 uM using dextromethorphan as substrate incubated for 60 mins by HPLC analysis relative to control. Type of data set: ADME. The settings on record: probe dextromethorphan.
The next data set deals with T2, CYP2B6 (Homo sapiens, UniProt P20813).
T2 sequence (P20813 whole entry): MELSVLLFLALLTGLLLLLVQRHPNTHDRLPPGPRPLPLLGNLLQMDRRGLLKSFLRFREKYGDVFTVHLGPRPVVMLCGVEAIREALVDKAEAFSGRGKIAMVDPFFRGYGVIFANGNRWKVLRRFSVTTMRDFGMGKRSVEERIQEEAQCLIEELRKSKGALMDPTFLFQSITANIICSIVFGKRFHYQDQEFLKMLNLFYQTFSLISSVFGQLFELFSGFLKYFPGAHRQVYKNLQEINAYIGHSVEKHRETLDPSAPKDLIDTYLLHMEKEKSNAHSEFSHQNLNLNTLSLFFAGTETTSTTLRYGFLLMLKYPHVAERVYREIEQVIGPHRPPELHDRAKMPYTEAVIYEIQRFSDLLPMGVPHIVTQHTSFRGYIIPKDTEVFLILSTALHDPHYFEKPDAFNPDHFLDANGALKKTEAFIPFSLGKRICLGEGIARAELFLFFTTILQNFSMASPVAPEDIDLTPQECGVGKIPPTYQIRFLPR
Description: Inhibition of CYP2B6 in human liver microsomes at 20 uM incubated for 60 mins by HPLC analysis relative to control. It counts as ADME.

The nature of data set [2]: Metabolic stability in human liver microsomes assessed as compound remaining at 10 uM incubated for 1 hr.
Data set [3] has as its target T1, Prostaglandin E2 receptor EP4 subtype. In words: Inhibition of human EP4 transfected in human HEK293 cells co transfected with CRE-luciferase assessed as reduction in PGE2-induced luciferase expression incubated for 24 hrs by luciferase reporter gene Assay.

SMILES strings stand for the structures.

Chain of CYP2D6 (P10635 whole entry): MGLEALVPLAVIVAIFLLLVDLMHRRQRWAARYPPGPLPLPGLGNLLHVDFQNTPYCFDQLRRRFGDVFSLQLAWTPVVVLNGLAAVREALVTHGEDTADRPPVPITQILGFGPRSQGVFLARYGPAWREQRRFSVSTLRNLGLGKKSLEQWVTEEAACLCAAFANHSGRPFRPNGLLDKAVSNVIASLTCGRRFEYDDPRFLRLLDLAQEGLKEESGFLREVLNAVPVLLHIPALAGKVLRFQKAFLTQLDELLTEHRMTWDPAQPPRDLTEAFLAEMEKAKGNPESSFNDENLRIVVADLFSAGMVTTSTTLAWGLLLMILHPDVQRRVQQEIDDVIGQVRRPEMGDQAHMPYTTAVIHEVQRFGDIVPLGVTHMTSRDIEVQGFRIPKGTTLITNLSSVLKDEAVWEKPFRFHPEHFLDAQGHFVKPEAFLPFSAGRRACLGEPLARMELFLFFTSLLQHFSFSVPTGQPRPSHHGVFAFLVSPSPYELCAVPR
Chain of CYP2E1 (P05181 whole entry): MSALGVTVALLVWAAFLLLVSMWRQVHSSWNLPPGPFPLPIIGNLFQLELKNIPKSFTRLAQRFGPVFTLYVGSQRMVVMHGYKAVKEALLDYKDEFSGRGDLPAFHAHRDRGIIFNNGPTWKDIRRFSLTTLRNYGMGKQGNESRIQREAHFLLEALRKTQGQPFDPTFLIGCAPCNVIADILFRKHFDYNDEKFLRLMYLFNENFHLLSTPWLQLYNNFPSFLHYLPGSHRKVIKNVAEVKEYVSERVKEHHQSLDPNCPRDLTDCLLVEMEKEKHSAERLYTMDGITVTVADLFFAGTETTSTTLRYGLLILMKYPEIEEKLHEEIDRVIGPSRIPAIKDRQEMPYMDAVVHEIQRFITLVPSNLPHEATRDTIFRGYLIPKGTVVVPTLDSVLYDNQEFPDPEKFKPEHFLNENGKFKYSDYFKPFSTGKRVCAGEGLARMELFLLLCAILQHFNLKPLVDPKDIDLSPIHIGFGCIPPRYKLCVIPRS

In the case of `C/C=C/c1nnn(Cc2ccc(C(F)(F)F)cc2)c1C(=O)N[C@@H](C)c1ccc(C(=O)O)cc1`, the inhibition at 1 h, 20 µM was 66% against CYP2E1, 23% against CYP2D6 and 26% against CYP2B6. Moreover, the IC50 in data set [1] was determined as 18.7 nM; in data set [3], 5.2 nM. Besides, the Kb in data set [1] was 5.62 nM. Also, the “inhibition (INH)” value against Cytochrome P450 3A4 is “Not Active”. Moreover, the share remaining at 1 h, 10 µM in data set [2] came out at 100%.

(Values after ChEMBL document CHEMBL4376865, “Discovery and Characterization of 1H-1,2,3-Triazole Derivatives as Novel Prostanoid EP4 Receptor Antagonists for Cancer Immunotherapy” (J Med Chem, 2020).)
